Reference: patent publication US12421253B2 (Mirati Therapeutics, Inc., priority 2020, dated 2025)

What was measured:
[1] = molecular target: T1, KRas^G12V (Homo sapiens, UniProt P01116, G12V); assay: KRas binding assay (TR-FRET displacement of Cy5 labelled tracer)
T1 construct: […]; biotin (biotinylated); purchased Accelegan Inc

[2] = molecular target: T2, KRas^G12D (Homo sapiens, UniProt P01116, G12D); assay: as above
T2 construct: […]; biotin (biotinylated); purchased Accelegan Inc

[3] = tested on: ASPC1 cells, pERK; assay: Inhibition of KRas phosphorylation of ERK (Cisbio HTRF Advanced pERK assay); format: cell-based; settings: Homo sapiens, ASPC1, 3 h, AsPC-1 cells, read-out: Inhibition (HTRF IC50 nM) of KRas-mediated Phosphorylation of ERK, AsPC-1
Experimental: (§1) Inhibition of KRas Phosphorylation of ERK (HTRF) by Exemplary Compounds of Formula (I)
(§2) Cisbio HTRF Advanced pERK Assay Catalog #64AERPEH
(§3) • Day 1: Seed 6,000 cells/well −25 μl/well in 384-well white solid bottom plate; RPM1_10% FBS. […] To harvest cells from flask using 0.05% Trypsin/EDTA solution. Add 10 mL of media to stop trypsinizing. Pipette the cells into a conical bottom 50 mL centrifuge tube and centrifuge 5 min×1000 rpm. • 2. Re-suspend the cell pellet in media, take a cell count, and then adjust the cell density using fresh media. • 3. Seed 6,000 cells into cell culture plate with […]. The • 4. Incubate cell plate overnight in a 37° C., 5% CO2 incubator. Compound Titrations • 1. Use Tecan to complete the compound addition. Compounds start from 10 uM top, 3-fold dilution, and 10 doses. The final DMSO concentration is 0.8%. Dispensed 0.2 uM Trametinib as Min control. • 2. Incubate cell plate for 3 hrs in the incubator. Detection with Cisbio pERK HTRF Kit • 1. Dilute 1 volume of 4× lysis buffer with 3 volumes of deionized water. Then, add 100× the blocking reagent. Keep lysis buffer on the ice. • 2. At the end of the compound treatment, flick-off the media. • 3. Add 35 μL of lysis buffer per well using a Multidrop Combi. Then place on a plate agitator shaking at 300 rpm at 4° C. for 40 mins. • 4. Make up the HTRF antibody buffer. For each assay plate, mix 50 μL of d2-conjugate antibody with 950 μL of detection buffer. Similarly, mix 50 μL of Cryptate antibody with 950 μL of detection buffer. Then mix the two diluted antibodies together. • 5. Dispense 3.4 μL the antibody buffer to wells of an empty assay plate. Seal the plate and centrifuge plate 30 sec×1000 rpm. • 6. At the end of the 4° C. lysis, centrifuge the lysate plates 3 mins×1500 rpm. • 7. Use the Bravo to transfer 13.6 μL of lysate from cell culture plate to assay plate. Then incubate assay plate for 2 hrs at room temperature. • 8. At the end of incubation, read plate on the Envision after centrifuging plate 30 sec×1000 rpm.

[4] = tested on: H727 cells, pERK; assay: as above; format: cell-based; settings: Homo sapiens, NCI-H727, 3 h, read-out: Inhibition (HTRF IC50 nM) of KRas-mediated Phosphorylation of ERK, H727
Experimental: as §1, §2, §3

[5] = molecular target: T3, KRas^G12R (Homo sapiens, UniProt P01116, G12R); assay: KRas binding assay (TR-FRET displacement of Cy5 labelled tracer)
T3 construct: […]; biotin (biotinylated); purchased Accelegan Inc

[6] = molecular target: KRas^Q61H (Homo sapiens, UniProt P01116, Q61H); assay: biochemical
[7] = molecular target: T4, KRas^WT (Homo sapiens, UniProt P01116); assay: KRas binding assay (TR-FRET displacement of Cy5 labelled tracer)
T4 construct: […]; biotin (biotinylated); purchased Accelegan Inc

[8] = molecular target: KRas^G13D (Homo sapiens, UniProt P01116, G13D); assay: biochemical
[9] = molecular target: KRas^G12C (Homo sapiens, UniProt P01116, G12C); assay: biochemical
[10] = molecular target: T5, KRas^G12A (Homo sapiens, UniProt P01116, G12A); assay: KRas binding assay (TR-FRET displacement of Cy5 labelled tracer)
T5 construct: […]; biotin (biotinylated); purchased Accelegan Inc

[11] = molecular target: T6, KRas^G12S (Homo sapiens, UniProt P01116, G12S); assay: as above
T6 construct: […]; biotin (biotinylated); purchased Accelegan Inc
T6 sequence (P01116 1-169 isoform P01116-2 G12S): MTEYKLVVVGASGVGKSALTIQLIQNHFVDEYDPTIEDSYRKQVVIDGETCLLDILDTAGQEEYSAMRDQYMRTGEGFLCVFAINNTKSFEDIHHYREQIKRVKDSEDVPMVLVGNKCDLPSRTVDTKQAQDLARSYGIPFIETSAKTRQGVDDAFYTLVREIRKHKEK

KRas^G12C, sequence (P01116 1-169 isoform P01116-2 G12C): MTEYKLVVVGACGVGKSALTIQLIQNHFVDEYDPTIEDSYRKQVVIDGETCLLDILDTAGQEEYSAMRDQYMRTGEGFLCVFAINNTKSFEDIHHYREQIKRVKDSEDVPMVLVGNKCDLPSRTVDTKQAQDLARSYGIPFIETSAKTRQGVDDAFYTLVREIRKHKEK
KRas^Q61H, sequence (P01116 1-169 isoform P01116-2 Q61H): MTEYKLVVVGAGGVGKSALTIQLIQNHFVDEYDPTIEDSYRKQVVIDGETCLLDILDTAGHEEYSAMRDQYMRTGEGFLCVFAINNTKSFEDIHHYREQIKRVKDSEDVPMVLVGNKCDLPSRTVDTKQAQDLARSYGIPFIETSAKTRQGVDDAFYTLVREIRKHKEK
T4 sequence (P01116 1-169 isoform P01116-2): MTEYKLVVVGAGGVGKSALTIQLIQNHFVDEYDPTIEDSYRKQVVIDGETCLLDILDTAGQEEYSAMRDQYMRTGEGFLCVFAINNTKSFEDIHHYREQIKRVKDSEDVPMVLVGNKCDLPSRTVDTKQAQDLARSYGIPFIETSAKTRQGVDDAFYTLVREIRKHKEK
T1 sequence (P01116 1-169 isoform P01116-2 G12V): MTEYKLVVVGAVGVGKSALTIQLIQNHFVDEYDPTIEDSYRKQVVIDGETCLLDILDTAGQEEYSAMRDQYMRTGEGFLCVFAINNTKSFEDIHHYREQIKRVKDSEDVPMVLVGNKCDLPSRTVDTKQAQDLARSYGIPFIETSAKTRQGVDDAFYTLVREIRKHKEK
T2 sequence (P01116 1-169 isoform P01116-2 G12D): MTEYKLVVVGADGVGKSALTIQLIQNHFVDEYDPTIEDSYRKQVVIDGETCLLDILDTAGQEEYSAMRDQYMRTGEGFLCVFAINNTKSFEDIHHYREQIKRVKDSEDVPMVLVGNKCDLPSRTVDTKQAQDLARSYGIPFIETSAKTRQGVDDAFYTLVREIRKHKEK
T3 sequence (P01116 1-169 isoform P01116-2 G12R): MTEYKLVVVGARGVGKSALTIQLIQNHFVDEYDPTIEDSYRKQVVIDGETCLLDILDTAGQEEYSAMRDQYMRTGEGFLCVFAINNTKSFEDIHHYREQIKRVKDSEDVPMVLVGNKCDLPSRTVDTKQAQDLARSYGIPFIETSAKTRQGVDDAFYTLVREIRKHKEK
T5 sequence (P01116 1-169 isoform P01116-2 G12A): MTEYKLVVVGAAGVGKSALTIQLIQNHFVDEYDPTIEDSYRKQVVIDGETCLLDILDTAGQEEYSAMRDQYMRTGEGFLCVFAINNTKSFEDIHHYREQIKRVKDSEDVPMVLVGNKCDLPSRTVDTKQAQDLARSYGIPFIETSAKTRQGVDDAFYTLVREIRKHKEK
KRas^G13D, sequence (P01116 1-169 isoform P01116-2 G13D): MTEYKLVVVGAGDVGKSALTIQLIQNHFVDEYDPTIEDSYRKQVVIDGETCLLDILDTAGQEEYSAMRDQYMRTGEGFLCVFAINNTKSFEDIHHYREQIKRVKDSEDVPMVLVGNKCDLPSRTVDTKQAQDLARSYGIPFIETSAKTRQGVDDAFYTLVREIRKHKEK

| SMILES | IC50 [1] [µM] | IC50 [2] [µM] | IC50 [3] [nM] | IC50 [4] [nM] | IC50 [5] [µM] | IC50 [6] [µM] | IC50 [7] [µM] | IC50 [8] [µM] | IC50 [9] [µM] | IC50 [10] [µM] | IC50 [11] [µM] |
| --- | --- | --- | --- | --- | --- | --- | --- | --- | --- | --- | --- |
| Cc1cc2[nH]ncc2c(N2CCc3c(nc(OCC45CCCN4CCC5)nc3N3CCC[C@@](C)(O)C3)C2)c1C [Example 15, (R)-1-(7-(5,6-dimethyl-1H-indazol-4-yl)-2-((hexahydro-1H-pyrrolizin-7a-yl)methoxy)-5,6,7,8-tetrahydropyrido[3,4-d]pyrimidin-4-yl)-3-methylpiperidin-3-ol] | 0.103 | 0.126 | 1110 | 3190 | 0.144 | – | – | – | – | – | – |
| C[C@@]1(O)CCCN(c2nc(OCC34CCCN3CCC4)nc3c2CCN(c2cc(O)cc(Cl)c2C2CC2)C3)C1 [Example 204, (R)-1-(7-(3-chloro-2-cyclopropyl-5-hydroxyphenyl)-2-((hexahydro-1H-pyrrolizin-7a-yl)methoxy)-5,6,7,8-tetrahydropyrido[3,4-d]pyrimidin-4-yl)-3-methylpiperidin-3-ol] | 0.006 | 0.006 | 1530 | 1670 | 0.009 | – | – | – | – | – | – |
| CCc1c(F)ccc2cc(O)cc(N3CCc4c(nc(OC[C@@]56CCCN5C[C@H](F)C6)nc4N4C[C@H](O)C[C@H](C(N)=O)C4)C3)c12 [Example 187, (3S,5R)-1-(7-(8-ethyl-7-fluoro-3-hydroxynaphthalen-1-yl)-2-(((2R,7aS)-2-fluorohexahydro-1H-pyrrolizin-7a-yl)methoxy)-5,6,7,8-tetrahydropyrido[3,4-d]pyrimidin-4-yl)-5-hydroxypiperidine-3-carboxamide] | ≤ 0.002 | 0.004 | 5330 | 1320 | ≤ 0.002 | – | – | – | – | – | – |
| CCc1cccc2cccc(N3CCc4c(nc(OCC56CCCN5CCC6)nc4N4CCCn5nc(CO)cc5C4)C3)c12 [Example 8, (5-(7-(8-ethylnaphthalen-1-yl)-2-((tetrahydro-1H-pyrrolizin-7a(5H)-yl)methoxy)-5,6,7,8-tetrahydropyrido[3,4-d]pyrimidin-4-yl)-5,6,7,8-tetrahydro-4H-pyrazolo[1,5-a][1,4]diazepin-2-yl)methanol] | 0.137 | 0.043 | – | – | 0.102 | 0.567 | 0.271 | 0.628 | 0.139 | 0.316 | 0.175 |
| CCc1cccc2cccc(N3CCc4c(nc(OCC56CCCN5CCC6)nc4N(C)CC(C)(C)O)C3)c12 [Example 113, 1-((7-(8-ethylnaphthalen-1-yl)-2-((tetrahydro-1H-pyrrolizin-7a(5H)-yl)methoxy)-5,6,7,8-tetrahydropyrido[3,4-d]pyrimidin-4-yl)(methyl)amino)-2-methylpropan-2-ol] | 0.45 | 0.843 | – | – | 0.756 | 0.523 | 0.509 | 0.654 | 0.418 | 0.464 | 0.601 |
| CCc1cccc2cccc(N3CCc4c(nc(OCC56CCCN5CCC6)nc4NCCS(=O)(=O)N=S(C)(C)=O)C3)c12 [Example 165, N-(dimethyl(oxo)-16-sulfaneylidene)-2-((7-(8-ethylnaphthalen-1-yl)-2-((tetrahydro-1H-pyrrolizin-7a(5H)-yl)methoxy)-5,6,7,8-tetrahydropyrido[3,4-d]pyrimidin-4-yl)amino)ethane-1-sulfonamide] | 4.34 | 14.2 | – | – | 7.47 | 6.55 | 5.92 | 6.71 | 3.87 | 8.67 | 8.07 |
| CCc1cccc2cccc(N3CCc4c(nc(OCC56CCCN5CCC6)nc4N4CCCC(c5n[nH]c(C6CC6)n5)C4)C3)c12 (centres unmarked) [Example 108, 4-(3-(5-cyclopropyl-1H-1,2,4-triazol-3-yl)piperidin-1-yl)-7-(8-ethylnaphthalen-1-yl)-2-((tetrahydro-1H-pyrrolizin-7a(5H)-yl)methoxy)-5,6,7,8-tetrahydropyrido[3,4-d]pyrimidine] | 0.948 | 4.09 | – | – | 0.381 | 1.6 | 1.55 | 1.29 | 0.485 | 0.656 | 0.975 |

Other lines, results leading:

| IC50 [1] [µM] | IC50 [2] [µM] | IC50 [3] [nM] | IC50 [4] [nM] | IC50 [5] [µM] | IC50 [6] [µM] | IC50 [7] [µM] | IC50 [8] [µM] | IC50 [9] [µM] | IC50 [10] [µM] | IC50 [11] [µM] | SMILES |
| --- | --- | --- | --- | --- | --- | --- | --- | --- | --- | --- | --- |
| 0.197 | 0.136 | 4050 | 6940 | 0.35 | – | – | – | – | – | – | CN1CCC[C@H]1COc1nc2c(c(N3CCCC4(CNS(=O)(=O)N4)C3)n1)CCN(c1cccc3cccc(Cl)c13)C2 (stereo partly drawn) [Example 208, 9-[7-(8-chloro-1-naphthyl)-2-[[(2S)-1-methylpyrrolidin-2-yl]methoxy]-6,8-dihydro-5H-pyrido[3,4-d]pyrimidin-4-yl]-2λ6-thia-1,3,9-triazaspiro[4.5]decane 2,2-dioxide] |
| 1.9 | 1.12 | 7200 | 8520 | 4.14 | – | – | – | – | – | – | CN(C)C(=O)c1cc2n(n1)CCCN(c1nc(OC[C@@H]3CCCN3C)nc3c1CCN(c1cccc4cccc(Cl)c14)C3)C2 [Example 209, (S)-5-(7-(8-chloronaphthalen-1-yl)-2-((1-methylpyrrolidin-2-yl)methoxy)-5,6,7,8-tetrahydropyrido[3,4-d]pyrimidin-4-yl)-N,N-dimethyl-5,6,7,8-tetrahydro-4H-pyrazolo[1,5-a][1,4]diazepine-2-carboxamide] |
| 0.833 | 0.932 | ≥ 10000 | ≥ 10000 | 1.62 | – | – | – | – | – | – | CN1CCC[C@H]1COc1nc2c(c(N3C[C@@H]4C(=O)NC(=O)[C@@H]4C3)n1)CCN(c1cccc3cccc(Cl)c13)C2 [Example 206, (3aS,6aR)-5-[7-(8-chloro-1-naphthyl)-2-[[(2S)-1-methylpyrrolidin-2-yl]methoxy]-6,8-dihydro-5H-pyrido[3,4-d]pyrimidin-4-yl]-3a,4,6,6a-tetrahydropyrrolo[3,4-c]pyrrole-1,3-dione] |
| 0.404 | 0.765 | ≥ 10000 | ≥ 10000 | 0.553 | – | – | – | – | – | – | CN1CCC[C@H]1COc1nc2c(c(N3CCCC4(CC(=O)N4)C3)n1)CCN(c1cccc3cccc(Cl)c13)C2 (stereo partly drawn) [Example 207, 8-[7-(8-chloro-1-naphthyl)-2-[[(2S)-1-methylpyrrolidin-2-yl]methoxy]-6,8-dihydro-5H-pyrido[3,4-d]pyrimidin-4-yl]-1,8-diazaspiro[3.5]nonan-2-one] |
| 0.291 | 2.11 | – | – | 0.104 | 0.734 | 0.838 | 0.696 | 0.161 | 0.215 | 0.351 | CCc1cccc2cccc(N3CCc4c(nc(OCC56CCCN5CCC6)nc4N4CCCC(c5nc(N)n(C)n5)C4)C3)c12 (centres unmarked) [Example 84, 3-(1-(7-(8-ethylnaphthalen-1-yl)-2-((tetrahydro-1H-pyrrolizin-7a(5H)-yl)methoxy)-5,6,7,8-tetrahydropyrido[3,4-d]pyrimidin-4-yl)piperidin-3-yl)-1-methyl-1H-1,2,4-triazol-5-amine] |
| 1.26 | 8.52 | – | – | 1.64 | 1.61 | 1.61 | 1.2 | 2.3 | 2.95 | 2.49 | CCc1cccc2cccc(N3CCc4c(nc(OCC56CCCN5CCC6)nc4N4CC[C@H]5C(=O)NC[C@H]5C4)C3)c12 [Example 141, (3aS,7aR)-5-(7-(8-ethylnaphthalen-1-yl)-2-((tetrahydro-1H-pyrrolizin-7a(5H)-yl)methoxy)-5,6,7,8-tetrahydropyrido[3,4-d]pyrimidin-4-yl)octahydro-1H-pyrrolo[3,4-c]pyridin-1-one] |
